{
  "source": "patent US20250312258A1",
  "about": "“2,3-PYRROLIDINEDIONE CONJUGATES AND METHODS OF USING THEREOF” (North Carolina State University, priority 2022, published 2025)",
  "key": {"Group A Strep": {"tested_on": "Group A Strep", "assay": "MIC against Group A Strep strain panel", "assay_type": "cell-based"}, "E. coli": {"tested_on": "E. coli", "assay": "MIC against E. coli strains", "assay_type": "cell-based"}, "ATCC 29212 E. faecalis": {"tested_on": "ATCC 29212 E. faecalis", "assay": "MIC against ATCC 29212 E. faecalis", "assay_type": "cell-based"}, "VRE": {"tested_on": "VRE", "assay": "MIC / in vitro activity against VRE strain panel", "assay_type": "cell-based, Enterococcus spp."}, "VSE 2127": {"tested_on": "VSE 2127", "assay": "MIC against VSE 2127", "assay_type": "cell-based, Enterococcus spp.", "details": "Enterococcus, read-out: MIC (VSE 2127)"}, "S. aureus 25923": {"tested_on": "S. aureus 25923", "assay": "Broth microdilution MIC, S. aureus 25923", "assay_type": "cell-based, Staphylococcus aureus", "details": "Staphylococcus aureus, 25923, read-out: MIC (S. aureus 25923)"}, "VRSA": {"tested_on": "VRSA", "assay": "MIC against VRSA (Table 2)", "assay_type": "cell-based", "details": "Staphylococcus aureus, read-out: MIC (VRSA)"}, "Group B Strep": {"tested_on": "Group B Strep", "assay": "MIC against Group B Strep strain panel", "assay_type": "cell-based"}, "MSSA": {"tested_on": "MSSA", "assay": "MIC against MSSA strain panel", "assay_type": "cell-based", "details": "Staphylococcus aureus, the 4th table"}},
  "data": [
    {"molecule": "CN[C@H](CC(C)C)C(=O)N[C@H]1C(=O)N[C@@H](CC(N)=O)C(=O)N[C@H]2C(=O)N[C@H]3C(=O)N[C@H](C(=O)N[C@H](C(=O)O)c4cc(O)cc(O)c4-c4cc3ccc4O)[C@H](O)c3ccc(c(Cl)c3)Oc3cc2cc(c3O[C@@H]2O[C@H](CO)[C@@H](O)[C@H](O)[C@H]2O[C@H]2C[C@](C)(N)[C@H](O)[C@H](C)O2)Oc2ccc(cc2Cl)[C@H]1O", "note": "[Vancomycin, vancomycin, reference compound]", "values": [
      {"measurement": "MIC", "setting": "Group A Strep; 2009-8 Group A Strep, the 8th table", "value": 0.25, "unit": "µg/mL"},
      {"measurement": "MIC", "setting": "Group A Strep; 2009-37 Group A Strep, CA-MHB w/5% LHB, the 4th table", "value": 0.25, "unit": "µg/mL"},
      {"measurement": "MIC", "setting": "Group A Strep; 2009-106 Group A Strep, the 8th table", "value": 0.25, "unit": "µg/mL"},
      {"measurement": "MIC", "setting": "Group A Strep; 2009-109 Group A Strep, the 8th table", "value": 0.25, "unit": "µg/mL"},
      {"measurement": "MIC", "setting": "Group A Strep; 2009-114 Group A Strep, the 8th table", "value": 0.25, "unit": "µg/mL"},
      {"measurement": "MIC", "setting": "Group A Strep; 2009-136 Group A Strep, the 8th table", "value": 0.25, "unit": "µg/mL"},
      {"measurement": "MIC", "setting": "E. coli; AR-137 E. coli, the 4th table", "value": ">64", "unit": "µg/mL"},
      {"measurement": "MIC", "setting": "E. coli; Escherichia coli", "value": "> 64", "unit": "µg/mL"},
      {"measurement": "MIC", "setting": "E. coli; Escherichia coli, ATCC25922", "value": "> 64", "unit": "µg/mL"},
      {"measurement": "MIC", "setting": "ATCC 29212 E. faecalis; ATCC 29212 E. faecalis, the 6th table", "value": 2, "unit": "µg/mL"},
      {"measurement": "MIC", "setting": "ATCC 29212 E. faecalis; Enterococcus faecalis, ATCC29212", "value": 2, "unit": "µg/mL"},
      {"measurement": "MIC", "setting": "VRE; 1593 (VRE), the 3rd table", "value": ">64", "unit": "µg/mL"},
      {"measurement": "MIC", "setting": "VRE; 1593 VRE, the 4th table", "value": ">64", "unit": "µg/mL"},
      {"measurement": "MIC", "setting": "VRE; 1751 (VRE), the 3rd table", "value": ">64", "unit": "µg/mL"},
      {"measurement": "MIC", "setting": "VRE; 1751 VRE, the 6th table", "value": ">64", "unit": "µg/mL"},
      {"measurement": "MIC", "setting": "VRE; 1772 VRE, the 6th table", "value": ">64", "unit": "µg/mL"},
      {"measurement": "MIC", "setting": "VRE; 1946 VRE, the 6th table", "value": ">64", "unit": "µg/mL"},
      {"measurement": "MIC", "setting": "VRE; 2059 VRE, the 6th table", "value": ">64", "unit": "µg/mL"},
      {"measurement": "MIC", "setting": "VRE; 2431 VRE, the 6th table", "value": ">64", "unit": "µg/mL"},
      {"measurement": "MIC", "setting": "VRE; 2574 VRE, the 6th table", "value": ">64", "unit": "µg/mL"},
      {"measurement": "MIC", "setting": "VRE; 3053 VRE, the 6th table", "value": ">64", "unit": "µg/mL"},
      {"measurement": "MIC", "setting": "VRE; 3183 (VRE), the 3rd table", "value": ">64", "unit": "µg/mL"},
      {"measurement": "MIC", "setting": "VRE; 3183 VRE, the 6th table", "value": ">64", "unit": "µg/mL"},
      {"measurement": "MIC", "setting": "VRE; 3190 VRE, the 6th table", "value": ">64", "unit": "µg/mL"},
      {"measurement": "MIC", "setting": "VRE; 3191 VRE, the 6th table", "value": ">64", "unit": "µg/mL"},
      {"measurement": "MIC", "setting": "VRE; 3222 (VRE, the 3rd table)", "value": ">64", "unit": "µg/mL"},
      {"measurement": "MIC", "setting": "VRE; 3222 VRE, the 6th table", "value": ">64", "unit": "µg/mL"},
      {"measurement": "MIC", "setting": "VRE; 3235 VRE, the 6th table", "value": ">64", "unit": "µg/mL"},
      {"measurement": "MIC", "setting": "VRE; 3239 VRE, the 6th table", "value": ">64", "unit": "µg/mL"},
      {"measurement": "MIC", "setting": "VRE; 3241 VRE, the 6th table", "value": ">64", "unit": "µg/mL"},
      {"measurement": "MIC", "setting": "VRE; 3623 VRE, the 6th table", "value": ">64", "unit": "µg/mL"},
      {"measurement": "MIC", "setting": "VRE; Enterococcus, VRE", "value": "> 64", "unit": "µg/mL"},
      {"measurement": "MIC", "setting": "VSE 2127", "value": 2, "unit": "µg/mL"},
      {"measurement": "MIC", "setting": "S. aureus 25923", "value": 2, "unit": "µg/mL"},
      {"measurement": "MIC", "setting": "VRSA", "value": 64, "unit": "µg/mL"},
      {"measurement": "MIC", "setting": "Group B Strep; 2008-57 Group B Strep, the 9th table", "value": 0.5, "unit": "µg/mL"},
      {"measurement": "MIC", "setting": "Group B Strep; 2008-70 Group B Strep, the 9th table", "value": 0.5, "unit": "µg/mL"},
      {"measurement": "MIC", "setting": "Group B Strep; 2008-87 Group B Strep, CA-MHB w/5% LHB, the 4th table", "value": 0.5, "unit": "µg/mL"},
      {"measurement": "MIC", "setting": "Group B Strep; 2008-115 Group B Strep, the 9th table", "value": 0.5, "unit": "µg/mL"},
      {"measurement": "MIC", "setting": "Group B Strep; 2009-20 Group B Strep, the 9th table", "value": 0.5, "unit": "µg/mL"},
      {"measurement": "MIC", "setting": "Group B Strep; 2009-40 Group B Strep, the 9th table", "value": 0.5, "unit": "µg/mL"},
      {"measurement": "MIC", "setting": "Group B Strep; 2009-43 Group B Strep, the 9th table", "value": 0.5, "unit": "µg/mL"},
      {"measurement": "MIC", "setting": "Group B Strep; 2009-51 Group B Strep, the 9th table", "value": 0.5, "unit": "µg/mL"},
      {"measurement": "MIC", "setting": "Group B Strep; 2009-57 Group B Strep, the 9th table", "value": 0.5, "unit": "µg/mL"},
      {"measurement": "MIC", "setting": "Group B Strep; 2009-59 Group B Strep, the 9th table", "value": 0.5, "unit": "µg/mL"},
      {"measurement": "MIC", "setting": "Group B Strep; 2009-60 Group B Strep, the 9th table", "value": 0.5, "unit": "µg/mL"},
      {"measurement": "MIC", "setting": "Group B Strep; 2009-61 Group B Strep, CA-MHB w/5% LHB, the 4th table", "value": 0.5, "unit": "µg/mL"},
      {"measurement": "MIC", "setting": "Group B Strep; 2009-62 Group B Strep, CA-MHB w/5% LHB, the 4th table", "value": 0.5, "unit": "µg/mL"},
      {"measurement": "MIC", "setting": "Group B Strep; J4182 Group B Strep, the 9th table", "value": 0.25, "unit": "µg/mL"},
      {"measurement": "MIC", "setting": "Group B Strep; J4183 Group B Strep, the 9th table", "value": 0.5, "unit": "µg/mL"},
      {"measurement": "MIC", "setting": "Group B Strep; J4185 Group B Strep, the 9th table", "value": 0.5, "unit": "µg/mL"},
      {"measurement": "MIC", "setting": "Group B Strep; J4186 Group B Strep, the 9th table", "value": 0.5, "unit": "µg/mL"},
      {"measurement": "MIC", "setting": "Group B Strep; J4222 Group B Strep, the 9th table", "value": 0.5, "unit": "µg/mL"},
      {"measurement": "MIC", "setting": "MSSA; VGP16-94 MSSA", "value": 0.5, "unit": "µg/mL"},
      {"measurement": "MIC", "setting": "MSSA; VGP16-95 MSSA", "value": 0.5, "unit": "µg/mL"},
      {"measurement": "MIC", "setting": "MSSA; VGP16-96 MSSA", "value": 0.5, "unit": "µg/mL"},
      {"measurement": "MIC", "setting": "MSSA; VGP16-97 MSSA", "value": 0.5, "unit": "µg/mL"},
      {"measurement": "MIC", "setting": "MSSA; VGP16-98 MSSA", "value": 0.5, "unit": "µg/mL"},
      {"measurement": "MIC", "setting": "MSSA; VGP16-99 MSSA", "value": 1, "unit": "µg/mL"},
      {"measurement": "MIC", "setting": "MSSA; VGP16-100 MSSA", "value": 0.5, "unit": "µg/mL"},
      {"measurement": "MIC", "setting": "MSSA; VGP16-101 MSSA", "value": 1, "unit": "µg/mL"},
      {"measurement": "MIC", "setting": "MSSA; VGP16-116 MSSA", "value": 0.5, "unit": "µg/mL"},
      {"measurement": "MIC", "setting": "MSSA; VGP16-117 MSSA", "value": 0.5, "unit": "µg/mL"}
    ]}
  ]
}
